Converted amounts (≈) assume the structure as drawn.
How the values were obtained:
[1] = tested on: Klebsiella pneumoniae; test: Antimicrobial activity against carbapenem-resistant Klebsiella pneumoniae ZJ69 deficient in SHV-28, ompK35/36 by CLSI method; assay type: functional
[2] = tested on: Klebsiella pneumoniae; test: Antimicrobial activity against carbapenem-resistant Klebsiella pneumoniae GZ83 deficient in SHV-11, CTX-M-14, ompK35/36 by CLSI method; assay type: functional
[3] = tested on: Klebsiella pneumoniae; test: Antimicrobial activity against Klebsiella pneumoniae PU104T expressing TEM-1, CTX-M-15 by CLSI method; assay type: functional
[4] = tested on: Escherichia coli; test: Antimicrobial activity against Escherichia coli PU102T expressing TEM-1, CTX-M-14, CMY-2 by CLSI method; assay type: functional
[5] = tested on: Enterobacter cloacae; test: Antimicrobial activity against carbapenem-resistant Enterobacter cloacae GX24 deficient in TEM-1, DHA-1, aac(6')-Ib, ompC by CLSI method; assay type: functional
[6] = tested on: Klebsiella aerogenes; test: Antimicrobial activity against carbapenem-resistant Enterobacter aerogenes PU41 deficient in CTX-M-14, DHA-1, qnrS1, ompC DEc, ompF by CLSI method; assay type: functional
[7] = tested on: Klebsiella aerogenes; test: Antimicrobial activity against Enterobacter aerogenes PU41T expressing CTX-M-14, DHA-1, qnrS1 by CLSI method; assay type: functional
[8] = tested on: Escherichia coli; test: Antimicrobial activity against carbapenem-resistant Escherichia coli PU43 deficient in TEM-1, CTX-M-14, aac(6')-Ib, ompC/F by CLSI method; assay type: functional
[9] = tested on: Escherichia coli; test: Antimicrobial activity against carbapenem-resistant Escherichia coli HX74 deficient in TEM-1, CTX-M-14, CTX-M-3, aac(6')-Ibcr, ompC/F by CLSI method; assay type: functional
[10] = tested on: Klebsiella aerogenes; test: Antimicrobial activity against carbapenem-resistant Enterobacter aerogenes WH85 deficient in TEM-1, CTX-M-3, ompC/F by CLSI method; assay type: functional
[11] = tested on: Enterobacter cloacae; test: Antimicrobial activity against carbapenem-resistant Enterobacter cloacae NJ91 deficient in CTX-M-14, ompC/F by CLSI method; assay type: functional
[12] = tested on: Citrobacter freundii; test: Antimicrobial activity against Citrobacter freundii RJ78 expressing CMY-2, qnrA1, aac(6')-Ib-cr, ompC by CLSI method; assay type: functional
[13] = tested on: Klebsiella pneumoniae; test: Antimicrobial activity against carbapenem-resistant Klebsiella pneumoniae ZJ18 deficient in KPC-2, SHV-28, DHA-1, ompK35 by CLSI method; assay type: functional
[14] = tested on: Klebsiella pneumoniae; test: Antimicrobial activity against Klebsiella pneumoniae ZJ18T expressing KPC-2, DHA-1 by CLSI method; assay type: functional
[15] = tested on: Klebsiella pneumoniae; test: Antimicrobial activity against Klebsiella pneumoniae ZJ70T expressing KPC-2 by CLSI method; assay type: functional
[16] = tested on: Escherichia coli; test: Antimicrobial activity against Escherichia coli ZJ86T expressing KPC-2 by CLSI method; assay type: functional
[17] = tested on: Escherichia coli; test: Antimicrobial activity against Escherichia coli ZJ87 expressing KPC-2, TEM-1, ompC by CLSI method; assay type: functional
[18] = tested on: Klebsiella pneumoniae; test: Antimicrobial activity against Klebsiella pneumoniae FZ49T expressing IMP-8, TEM-1, CTX-M-14, qnrB2, aac(6')-Ib by CLSI method; assay type: functional
[19] = tested on: Klebsiella pneumoniae; test: Antimicrobial activity against Klebsiella pneumoniae WH77 expressing IMP-4, TEM-1, SHV-14, CTX-M-3, qnrS1 by CLSI method; assay type: functional
[20] = tested on: Citrobacter freundii; test: Antimicrobial activity against Citrobacter freundii SZ63T expressing IMP-4, qnrS1by CLSI method; assay type: functional
[21] = tested on: Enterobacter cloacae; test: Antimicrobial activity against carbapenem-resistant Enterobacter cloacae WH103 deficient in IMP-4, TEM-1, CTX-M-3, qnrS1, ompC by CLSI method; assay type: functional
[22] = tested on: Escherichia coli; test: Antimicrobial activity against Escherichia coli C600 by CLSI method; assay type: functional
[23] = tested on: Klebsiella pneumoniae; test: Antimicrobial activity against carbapenem-resistant Klebsiella pneumoniae PU5 deficient in SHV-12, DHA-1, aac(6')-Ib-cr, ompK35/36 by CLSI method; assay type: functional
[24] = tested on: Klebsiella pneumoniae; test: Antimicrobial activity against carbapenem-resistant Klebsiella pneumoniae PU8 deficient in SHV-11, DHA-1, aac(6')-Ib-cr, ompK35/36 by CLSI method; assay type: functional
[25] = tested on: Klebsiella pneumoniae; test: Antimicrobial activity against carbapenem-resistant Klebsiella pneumoniae SZ61 deficient in TEM-1, SHV-1a, CMY-2, ompK35/36 by CLSI method; assay type: functional
[26] = tested on: Klebsiella pneumoniae; test: Antimicrobial activity against carbapenem-resistant Klebsiella pneumoniae GZ66 deficient in SHV-11, DHA-1, ompK35/36 by CLSI method; assay type: functional
[27] = tested on: Klebsiella pneumoniae; test: Antimicrobial activity against carbapenem-resistant Klebsiella pneumoniae CY75 deficient in SHV-11, DHA-1, ompK35/36 by CLSI method; assay type: functional
[28] = tested on: Klebsiella pneumoniae; test: Antimicrobial activity against carbapenem-resistant Klebsiella pneumoniae XJ81 deficient in TEM-1, SHV-12, DHA-1, aac(6')-Ib, ompK35/36 by CLSI method; assay type: functional
[29] = tested on: Escherichia coli; test: Antimicrobial activity against Escherichia coli C600 transconjugant GZ66T expressing SHV-11, DHA-1 by CLSI method
[30] = tested on: Klebsiella pneumoniae; test: Antimicrobial activity against carbapenem-resistant Klebsiella pneumoniae ZJ68 deficient in CTX-M-15, ompK35/36 by CLSI method
[31] = tested on: Escherichia coli; test: Antimicrobial activity against carbapenem-resistant Escherichia coli ZJ86 expressing KPC-2, TEM-1 with ompC loss by CLSI method
[32] = tested on: Escherichia coli; test: Antimicrobial activity against Escherichia coli C600 transconjugant WH77T expressing IMP-4, TEM-1, CTX-M-3, qnrS1 by CLSI method

## CO[C@@]1(NC(=O)Cc2cccs2)C(=O)N2C(C(=O)O)=C(COC(N)=O)CS[C@@H]21 [CEFOXITIN]
[1]
  MIC: > 256 mg/L
[2]
  MIC: > 256 mg/L
[3]
  MIC: 256 mg/L (≈ 599 µM)
[4]
  MIC: > 256 mg/L
[5]
  MIC: > 256 mg/L
[6]
  MIC: > 256 mg/L
[7]
  MIC: 256 mg/L (≈ 599 µM)
[8]
  MIC: 128 mg/L (≈ 299 µM)
[9]
  MIC: 64 mg/L (≈ 150 µM)
[10]
  MIC: 256 mg/L (≈ 599 µM)
[11]
  MIC: > 256 mg/L
[12]
  MIC: > 256 mg/L
[13]
  MIC: > 256 mg/L
[14]
  MIC: 128 mg/L (≈ 299 µM)
[15]
  MIC: 32 mg/L (≈ 74.9 µM)
[16]
  MIC: 64 mg/L (≈ 150 µM)
[17]
  MIC: 64 mg/L (≈ 150 µM)
[18]
  MIC: > 256 mg/L
[19]
  MIC: > 256 mg/L
[20]
  MIC: > 256 mg/L
[21]
  MIC: > 256 mg/L
[22]
  MIC: 16 mg/L (≈ 37.4 µM)
[23]
  MIC: > 256 mg/L
[24]
  MIC: > 256 mg/L
[25]
  MIC: > 256 mg/L
[26]
  MIC: > 256 mg/L
[27]
  MIC: > 256 mg/L
[28]
  MIC: > 256 mg/L
[29]
  MIC: 128 mg/L (≈ 299 µM)
[30]
  MIC: 32 mg/L (≈ 74.9 µM)
[31]
  MIC: 64 mg/L (≈ 150 µM)
[32]
  MIC: > 256 mg/L
